Earlier results in patent US7850997B2, “Dietary compositions and methods of enhancing lean body mass and exercise performance” (priority 2007, dated 2010).

Assays:
[1] = compared with placebo; patients
[2] = oral arginine 0.5 g/10 kg for one week, versus placebo; primary or precapillary secondary pulmonary hypertension
[3] = after arginine 6 g/day for 10 days; 7 healthy males
[4] = 6 g oral L-arginine for 3 days vs placebo; 25 patients with stable coronary artery disease
[5] = oral L-arginine 6 g for 3 days; 22 patients with stable angina pectoris and healed myocardial infarction

N=C(N)NCCCC(N)C(=O)O (stereo not shown) [arginine, 2-amino-5-guanidinovaleric acid]
forearm blood flow during forearm exercise [1]: significantly increased | mean pulmonary arterial pressure [2]: significantly decreased | pulmonary vascular resistance [2]: significantly decreased | flow-mediated vasodilation (FMV) after 4 and 6 h after oral fat load [3]: normalized | flow-mediated vasodilation (FMV) at 2 h after oral fat load [3]: significantly decreased | exercise duration [4]: significantly increased | exercise capacity [5]: increased
